From ChEMBL document CHEMBL4308841, “Synthesis, in vitro antiproliferative activity, and kinase inhibitory effects of pyrazole-containing diarylureas and diarylamides” (Eur J Med Chem, 2018)

Each compound was assayed on MOLT-4 (assay: Growth inhibition of human MOLT4 cells assessed as cell growth at 10 uM incubated for 48 hrs by sulforhodamine B assay relative to control). Details: MOLT-4, 48 h, read-out: Activity.
Format: functional

Row | Compound | growth at 10 µM [%]
1 | COc1cc(Cl)cc(-c2nn(-c3cccc(NC(=O)c4cccc(C(F)(F)F)c4)c3)cc2-c2ccncc2)c1 | 29

The compounds below were run on HOP-62 (assay: Growth inhibition of human HOP62 cells assessed as cell growth at 10 uM incubated for 48 hrs by sulforhodamine B assay relative to control). Details: HOP-62, 48 h, read-out: Activity.
Format: functional

Row | Compound | growth at 10 µM [%]
2 | COc1cc(Cl)cc(-c2nn(-c3cccc(NC(=O)c4cccc(C(F)(F)F)c4)c3)cc2-c2ccncc2)c1 | 71.6

What follows are compounds tested on NCI-H226 (assay: Growth inhibition of human NCI-H226 cells assessed as cell growth at 10 uM incubated for 48 hrs by sulforhodamine B assay relative to control). Details: NCI-H226, 48 h, read-out: Activity.
Format: functional

Row | Compound | growth at 10 µM [%]
3 | COc1cc(Cl)cc(-c2nn(-c3cccc(NC(=O)c4cccc(C(F)(F)F)c4)c3)cc2-c2ccncc2)c1 | 69

Each compound was assayed on NCI-H460 (assay: Growth inhibition of human NCI-H460 cells assessed as cell growth at 10 uM incubated for 48 hrs by sulforhodamine B assay relative to control). Details: NCI-H460, 48 h, read-out: Activity.
Format: functional

Row | Compound | growth at 10 µM [%]
4 | COc1cc(Cl)cc(-c2nn(-c3cccc(NC(=O)c4cccc(C(F)(F)F)c4)c3)cc2-c2ccncc2)c1 | 41.1

Each compound was assayed on HCT-116 (assay: Growth inhibition of human HCT116 cells assessed as cell growth at 10 uM incubated for 48 hrs by sulforhodamine B assay relative to control). Details: HCT-116, 48 h, read-out: Activity.
Format: functional

Row | Compound | growth at 10 µM [%]
5 | COc1cc(Cl)cc(-c2nn(-c3cccc(NC(=O)c4cccc(C(F)(F)F)c4)c3)cc2-c2ccncc2)c1 | 34.1

These compounds were tested on LOX IMVI (assay: Growth inhibition of human LOXIMVI cells assessed as cell growth at 10 uM incubated for 48 hrs by sulforhodamine B assay relative to control). Details: read-out: Activity.
Format: functional

Row | Compound | growth at 10 µM [%]
6 | COc1cc(Cl)cc(-c2nn(-c3cccc(NC(=O)c4cccc(C(F)(F)F)c4)c3)cc2-c2ccncc2)c1 | 51.7

Each compound was assayed on MDA-MB-435 (assay: Growth inhibition of human MDA-MB-435 cells assessed as cell growth at 10 uM incubated for 48 hrs by sulforhodamine B assay relative to control). Details: MDA-MB-435, 48 h, read-out: Activity.
Format: functional

Row | Compound | growth at 10 µM [%]
7 | COc1cc(Cl)cc(-c2nn(-c3cccc(NC(=O)c4cccc(C(F)(F)F)c4)c3)cc2-c2ccncc2)c1 | 65.6

Each compound was assayed on UACC-257 (assay: Growth inhibition of human UACC257 cells assessed as cell growth at 10 uM incubated for 48 hrs by sulforhodamine B assay relative to control). Details: UACC-257, 48 h, read-out: Activity.
Format: functional

Row | Compound | growth at 10 µM [%]
8 | COc1cc(Cl)cc(-c2nn(-c3cccc(NC(=O)c4cccc(C(F)(F)F)c4)c3)cc2-c2ccncc2)c1 | 68.7

What follows are compounds tested on UACC-62 (assay: Growth inhibition of human UACC62 cells assessed as cell growth at 10 uM incubated for 48 hrs by sulforhodamine B assay relative to control). Details: UACC-62, 48 h, read-out: Activity.
Format: functional

Row | Compound | growth at 10 µM [%]
9 | COc1cc(Cl)cc(-c2nn(-c3cccc(NC(=O)c4cccc(C(F)(F)F)c4)c3)cc2-c2ccncc2)c1 | 74.5

What follows are compounds tested on IGROV-1 (assay: Growth inhibition of human IGROV1 cells assessed as cell growth at 10 uM incubated for 48 hrs by sulforhodamine B assay relative to control). Details: IGROV-1, 48 h, read-out: Activity.
Format: functional

Row | Compound | growth at 10 µM [%]
10 | COc1cc(Cl)cc(-c2nn(-c3cccc(NC(=O)c4cccc(C(F)(F)F)c4)c3)cc2-c2ccncc2)c1 | 80.7

Each compound was assayed on OVCAR-3 (assay: Growth inhibition of human OVCAR3 cells assessed as cell growth at 10 uM incubated for 48 hrs by sulforhodamine B assay relative to control). Details: OVCAR-3, 48 h, read-out: Activity.
Format: functional

Row | Compound | growth at 10 µM [%]
11 | COc1cc(Cl)cc(-c2nn(-c3cccc(NC(=O)c4cccc(C(F)(F)F)c4)c3)cc2-c2ccncc2)c1 | 52.3

The compounds below were run on NCI/ADR-RES (assay: Growth inhibition of human NCI/ADR-RES cells assessed as cell growth at 10 uM incubated for 48 hrs by sulforhodamine B assay relative to control). Details: read-out: Activity.
Format: functional

Row | Compound | growth at 10 µM [%]
12 | COc1cc(Cl)cc(-c2nn(-c3cccc(NC(=O)c4cccc(C(F)(F)F)c4)c3)cc2-c2ccncc2)c1 | 46.6

These compounds were tested on SK-OV-3 (assay: Growth inhibition of human SKOV3 cells assessed as cell growth at 10 uM incubated for 48 hrs by sulforhodamine B assay relative to control). Details: SK-OV-3, 48 h, read-out: Activity.
Format: functional

Row | Compound | growth at 10 µM [%]
13 | COc1cc(Cl)cc(-c2nn(-c3cccc(NC(=O)c4cccc(C(F)(F)F)c4)c3)cc2-c2ccncc2)c1 | 81.6

What follows are compounds tested on 786-0 (assay: Growth inhibition of human 786-0 cells assessed as cell growth at 10 uM incubated for 48 hrs by sulforhodamine B assay relative to control). Details: 786-0, 48 h, read-out: Activity.
Format: functional

Row | Compound | growth at 10 µM [%]
14 | COc1cc(Cl)cc(-c2nn(-c3cccc(NC(=O)c4cccc(C(F)(F)F)c4)c3)cc2-c2ccncc2)c1 | 66.6

These compounds were tested on ACHN (assay: Growth inhibition of human ACHN cells assessed as cell growth at 10 uM incubated for 48 hrs by sulforhodamine B assay relative to control). Details: read-out: Activity.
Format: functional

Row | Compound | growth at 10 µM [%]
15 | COc1cc(Cl)cc(-c2nn(-c3cccc(NC(=O)c4cccc(C(F)(F)F)c4)c3)cc2-c2ccncc2)c1 | 48.1

Each compound was assayed on CAKI-1 (assay: Growth inhibition of human Caki1 cells assessed as cell growth at 10 uM incubated for 48 hrs by sulforhodamine B assay relative to control). Details: CAKI-1, 48 h, read-out: Activity.
Format: functional

Row | Compound | growth at 10 µM [%]
16 | COc1cc(Cl)cc(-c2nn(-c3cccc(NC(=O)c4cccc(C(F)(F)F)c4)c3)cc2-c2ccncc2)c1 | 54

Each compound was assayed on RXF 393 (assay: Growth inhibition of human RXF393 cells assessed as cell growth at 10 uM incubated for 48 hrs by sulforhodamine B assay relative to control). Details: RXF 393, 48 h, read-out: Activity.
Format: functional

Row | Compound | growth at 10 µM [%]
17 | COc1cc(Cl)cc(-c2nn(-c3cccc(NC(=O)c4cccc(C(F)(F)F)c4)c3)cc2-c2ccncc2)c1 | 40.5

The compounds below were run on SN12C (assay: Growth inhibition of human SN12C cells assessed as cell growth at 10 uM incubated for 48 hrs by sulforhodamine B assay relative to control). Details: read-out: Activity.
Format: functional

Row | Compound | growth at 10 µM [%]
18 | COc1cc(Cl)cc(-c2nn(-c3cccc(NC(=O)c4cccc(C(F)(F)F)c4)c3)cc2-c2ccncc2)c1 | 65.8

The compounds below were run on UO-31 (assay: Growth inhibition of human UO31 cells assessed as cell growth at 10 uM incubated for 48 hrs by sulforhodamine B assay relative to control). Details: UO-31, 48 h, read-out: Activity.
Format: functional

Row | Compound | growth at 10 µM [%]
19 | COc1cc(Cl)cc(-c2nn(-c3cccc(NC(=O)c4cccc(C(F)(F)F)c4)c3)cc2-c2ccncc2)c1 | 37.2
